In experiment [1] the target is T1, 5-HT transporter (5-HT uptake) (Rattus norvegicus, UniProt P31652).
T1 construct: from tissue; host or cells: rat brain synaptosomes (P2 fraction) from medulla and pons
In words: 5-HT uptake inhibition in rat brain synaptosomes (medulla and pons). Type of experiment: biochemical. Particulars: % inhibition. The text has this:
(§1) b) Method For Determining Noradrenalin and 5-HT Uptake Inhibition
(§2) Synaptosomes from rat brain regions are freshly isolated for in vitro studies, as described in the publication “The isolation of nerve endings from brain” by E. G. Gray and V. P. Whittaker, J. Anatomy 96, pages 79-88, 1962. The corresponding literature description is hereby introduced as a reference and is deemed to be part of the disclosure.
(§3) The tissue (hypothalamus for the determination of noradrenalin uptake inhibition and medulla and pons for the determination of 5-HT uptake inhibition) is homogenised in ice-cooled 0.32 M sucrose (100 mg of tissue/1 ml) in a glass homogeniser with Teflon pestle using five complete up and down strokes at 840 revolutions/minute.
(§4) The homogenate is centrifuged at 4° C. for 10 minutes at 1000 g. After subsequent centrifugation at 17000 g for 55 minutes, the synaptosomes (P2 fraction) are obtained, which are resuspended in 0.32 M glucose (0.5 ml/100 mg of original weight).
(§5) The particular uptake is measured in a 96-well microtitre plate. The volume is 250 μl and the incubation proceeds at room temperature (approx. 20-25° C.) under an O2 atmosphere.
(§6) The incubation time is 7.5 minutes for [^3H]—NA and 5 minutes for [^3H]-5-HT. The 96 samples are then filtered through a Unifilter GF/B® microtitre plate (Packard) and washed with […] of incubated buffer using a “Brabdel MPXRI-96T Cell-Harvester”. The Unifilter GF/B plate is dried for 1 hour at 55° C. The plate is then sealed with a Back seal® (Packard) and 35 μl of scintillation fluid are added per well (Ultima Gold®, Packard). After sealing with a top seal® (Packard) and establishing an equilibrium (around 5 hours), radioactivity is determined in a “Trilux 1450 Microbeta” (Wallac).
(§7) The quantity of protein used in the above determination corresponds to the values known from the literature, as for example described in “Protein measurement with the folin phenol reagent”, Lowry et al., J. Biol. Chem., 193, 265-275, 1951. A detailed description of the method may additionally be found in the literature, for example in M.Ch. Frink, H.-H. Hennies, W. Engelberger, M. Haurand and B. Wilffert (1996) Arzneim.-Forsch./Drug Res. 46 (III), 11, 1029-1036. The disclosures of these two articles are hereby incorporated by reference.
(§8) The following characteristics were determined for the NA or 5-HT transporter: • NA uptake: Km=0.32±0.11 μM • 5HT uptake: Km=0.084±0.011 μM

In experiment [2] the target is T2, NA transporter (NA uptake) (Rattus norvegicus, UniProt Q63380).
T2 construct: from tissue; host or cells: rat brain synaptosomes (P2 fraction) from hypothalamus
T2 sequence (Q63380 1-617): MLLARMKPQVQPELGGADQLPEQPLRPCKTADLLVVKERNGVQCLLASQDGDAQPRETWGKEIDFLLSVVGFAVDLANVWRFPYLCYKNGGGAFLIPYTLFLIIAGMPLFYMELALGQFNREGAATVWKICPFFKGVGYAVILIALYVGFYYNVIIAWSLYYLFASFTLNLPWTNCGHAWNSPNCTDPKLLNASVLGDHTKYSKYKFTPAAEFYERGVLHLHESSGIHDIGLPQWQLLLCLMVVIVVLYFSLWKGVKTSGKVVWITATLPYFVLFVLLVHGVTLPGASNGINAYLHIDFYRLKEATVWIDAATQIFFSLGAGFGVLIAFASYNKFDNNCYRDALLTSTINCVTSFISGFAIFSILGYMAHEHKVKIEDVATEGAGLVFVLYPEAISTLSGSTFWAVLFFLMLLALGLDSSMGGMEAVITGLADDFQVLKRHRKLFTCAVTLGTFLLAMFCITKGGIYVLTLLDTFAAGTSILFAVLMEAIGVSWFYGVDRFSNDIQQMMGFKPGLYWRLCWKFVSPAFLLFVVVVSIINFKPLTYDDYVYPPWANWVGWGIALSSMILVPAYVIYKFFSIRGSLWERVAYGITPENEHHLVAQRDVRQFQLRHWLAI
As to the kind of experiment: Noradrenalin (NA) uptake inhibition in rat brain synaptosomes (hypothalamus). It is filed as biochemical. The settings on record: 10 μM inhibition.
Text: as §1, §2, §3, §4, §5, §6, §7, §8

Counter-ions that a name gives are not always drawn.

T1 sequence (P31652 whole entry): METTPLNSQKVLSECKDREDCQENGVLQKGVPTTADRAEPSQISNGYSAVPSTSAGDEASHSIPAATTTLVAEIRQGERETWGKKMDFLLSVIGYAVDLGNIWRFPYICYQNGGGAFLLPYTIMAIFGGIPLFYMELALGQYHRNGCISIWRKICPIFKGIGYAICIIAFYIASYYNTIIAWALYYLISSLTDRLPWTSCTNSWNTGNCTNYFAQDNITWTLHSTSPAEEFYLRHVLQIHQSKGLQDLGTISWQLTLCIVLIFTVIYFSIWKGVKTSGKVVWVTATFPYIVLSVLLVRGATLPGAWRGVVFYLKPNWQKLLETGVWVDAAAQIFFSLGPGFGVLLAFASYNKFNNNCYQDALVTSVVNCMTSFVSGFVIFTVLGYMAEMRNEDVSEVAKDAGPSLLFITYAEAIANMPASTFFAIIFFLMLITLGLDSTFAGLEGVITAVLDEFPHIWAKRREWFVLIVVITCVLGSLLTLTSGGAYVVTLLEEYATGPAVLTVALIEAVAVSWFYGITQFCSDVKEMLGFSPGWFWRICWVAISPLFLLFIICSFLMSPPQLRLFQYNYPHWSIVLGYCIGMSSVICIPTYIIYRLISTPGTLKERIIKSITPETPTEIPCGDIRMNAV

With “4-[1-Methyl-5-(4-phenyl-piperidin-1-ylmethyl)-1H-pyrrol-2-ylmethyl]-morpholine [Example 3]”, the 5HT uptake inhibition in experiment [1] (10 μM) worked out at 59%. Moreover, the NA uptake inhibition in experiment [2] came out at 71.

What is called inhibition is the change of the read-out against control, counted positive when it falls. Read a high inhibition as a response far below the control. Regarding `CCN(CC)Cc1ccc(CN2CCCCC2)n1C` [Example 1, Diethyl-(1-methyl-5-piperidin-1-ylmethyl-1H-pyrrol-2-ylmethyl)-amine dihydrochloride], the inhibition at 10 µM in experiment [1] amounted to 34%.

The molecule `CC1CCN(Cc2ccc(CN3CCCCC3)n2C)CC1` [Example 2, 1-(1-Methyl-5-piperidin-1-ylmethyl-1H-pyrrol-2-ylmethyl)-4-methylpiperidine] showed an inhibition at 10 µM in experiment [1] of 72%.

With `Cn1c(CN2CCCCC2)ccc1CN1CCN(c2ccccc2)CC1` [Example 4, 1-(1-Methyl-5-piperidin-1-ylmethyl-1H-pyrrol-2-ylmethyl)-4-phenyl-piperazine], the inhibition at 10 µM came out at 48% in experiment [1] and 77% in experiment [2].

With `Cn1c(CN2CCCCCC2)ccc1CN1CCC(Cc2ccccc2)CC1` [Example 5, 1-[5-(4-Benzyl-piperidin-1-ylmethyl)-1-methyl-1H-pyrrol-2-ylmethyl]-azepane], the inhibition at 10 µM in experiment [1] came to 64%; in experiment [2] it was 100%.

As for `CN(Cc1ccccc1)Cc1ccc(CN2CCC(Cc3ccccc3)CC2)n1C` [Example 6, Benzyl-[5-(4-benzyl-piperidin-1-ylmethyl)-1-methyl-1H-pyrrol-2-ylmethyl]-methyl-amine], the inhibition at 10 µM in experiment [1] worked out at 61%; in experiment [2], 100%.

As for `Cn1c(CN2CCOCC2)ccc1CN1CCC(Cc2ccccc2)CC1` [Example 7, 4-[5-(4-Benzyl-piperidin-1-ylmethyl)-1-methyl-1H-pyrrol-2-ylmethyl]-morpholine], the results for the inhibition at 10 µM in experiment [1] and in experiment [2] were 55% and 100%, respectively.

As for `CN(Cc1ccccc1)Cc1ccc(CN2CCCCCC2)n1C` [Example 8, (5-Azepan-1-ylmethyl-1-methyl-1H-pyrrol-2-ylmethyl)-benzyl-methyl-amine], in experiment [2], 10 µM produced 62% inhibition.

In experiment [2], `CC1CCCCN1Cc1ccc(CN(C)Cc2ccccc2)n1C` (stereo not drawn) [Example 9, Benzyl-methyl-[1-methyl-5-(2-methyl-piperidin-1-ylmethyl)-1H-pyrrol-2-ylmethyl]-amine] registered an inhibition at 10 µM of 57%.

For “Benzyl-methyl-[1-methyl-5-(4-phenyl-piperidin-1-ylmethyl)-1H-pyrrol-2-ylmethyl]-amine [Example 10]”, the NA uptake inhibition in experiment [2] is on record as 53.

The values are drawn from patent US20070135403A1, “Substituted 2,5-diaminomethyl-1H-pyrrole compounds” (Gruenenthal GmbH, priority 2004, published 2007).
